Measurements reported in ChEMBL document CHEMBL3046127, “Homo- and hetero-dimers of inactive organophosphorous group binding at dual sites of AChE” (Bioorg Med Chem Lett, 2011).

What was measured:
[1] = biological target: Acetylcholinesterase (Musca domestica, UniProt Q7YWJ9); assay: Inhibition of acetylcholinesterase in Musca domestica (house fly) brain by Ellman's method
[2] = biological target: Acetylcholinesterase (Drosophila melanogaster, UniProt P07140); assay: Inhibition of acetylcholinesterase in Drosophila melanogaster brain by Ellman's method
Sequence of Acetylcholinesterase (Drosophila melanogaster, UniProt P07140) (P07140 whole entry): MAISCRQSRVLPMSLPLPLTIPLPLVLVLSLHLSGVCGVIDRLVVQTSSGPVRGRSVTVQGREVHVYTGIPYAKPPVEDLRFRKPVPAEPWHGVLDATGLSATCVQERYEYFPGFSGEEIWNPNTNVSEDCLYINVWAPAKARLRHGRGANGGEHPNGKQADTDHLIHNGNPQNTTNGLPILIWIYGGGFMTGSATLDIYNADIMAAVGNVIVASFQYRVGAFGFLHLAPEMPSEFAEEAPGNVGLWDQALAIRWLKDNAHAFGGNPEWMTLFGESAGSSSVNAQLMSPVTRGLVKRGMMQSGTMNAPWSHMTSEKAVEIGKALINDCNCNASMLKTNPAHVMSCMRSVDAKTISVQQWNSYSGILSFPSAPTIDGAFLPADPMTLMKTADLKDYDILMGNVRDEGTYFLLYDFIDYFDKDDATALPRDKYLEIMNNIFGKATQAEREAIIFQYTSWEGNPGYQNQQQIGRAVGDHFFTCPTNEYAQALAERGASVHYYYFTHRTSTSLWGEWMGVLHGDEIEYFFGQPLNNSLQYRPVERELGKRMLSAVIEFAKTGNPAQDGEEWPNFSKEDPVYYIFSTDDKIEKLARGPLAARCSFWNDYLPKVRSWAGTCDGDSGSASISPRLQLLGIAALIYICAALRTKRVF

[3] = tested on: Tetranychus cinnabarinus; assay: Insecticidal activity against Tetranychus cinnabarinus (carmine spider mite) assessed as insect mortality at 300 mg/mL; type: functional; design: dose or concentration left out as unconfirmed
[4] = tested on: Lipaphis erysimi; assay: Insecticidal activity against Lipaphis erysimi (mustard aphids) assessed as insect mortality at 300 mg/mL; type: functional; design: dose or concentration left out as unconfirmed; conditions: in Brassica

Sequence of Acetylcholinesterase (Musca domestica, UniProt Q7YWJ9) (Q7YWJ9 whole entry): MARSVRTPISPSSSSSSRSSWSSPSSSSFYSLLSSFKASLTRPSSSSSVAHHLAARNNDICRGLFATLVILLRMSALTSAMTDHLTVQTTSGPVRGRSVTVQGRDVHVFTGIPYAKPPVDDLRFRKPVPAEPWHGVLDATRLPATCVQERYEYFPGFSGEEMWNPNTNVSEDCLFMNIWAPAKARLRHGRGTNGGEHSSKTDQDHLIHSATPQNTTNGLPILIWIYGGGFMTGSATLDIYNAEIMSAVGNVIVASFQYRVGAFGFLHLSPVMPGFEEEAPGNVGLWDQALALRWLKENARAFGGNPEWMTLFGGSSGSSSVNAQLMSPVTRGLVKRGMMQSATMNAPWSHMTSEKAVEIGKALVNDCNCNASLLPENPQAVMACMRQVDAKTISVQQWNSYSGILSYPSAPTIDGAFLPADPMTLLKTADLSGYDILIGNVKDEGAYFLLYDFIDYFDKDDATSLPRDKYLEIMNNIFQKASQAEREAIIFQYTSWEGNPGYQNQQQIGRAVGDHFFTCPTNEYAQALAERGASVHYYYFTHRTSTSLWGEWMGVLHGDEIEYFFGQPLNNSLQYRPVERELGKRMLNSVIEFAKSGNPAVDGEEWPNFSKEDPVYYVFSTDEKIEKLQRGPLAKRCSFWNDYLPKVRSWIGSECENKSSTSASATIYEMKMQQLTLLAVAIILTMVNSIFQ

SMILES	IC50 [1]	IC50 [2]	mortality [3]	mortality [4]
CCOP(=S)(OCC)Oc1nc(Cl)c(Cl)cc1Cl [CHLORPYRIFOS]	9.51 µM	1.83 µM	71.1%	100%
CCOP(=O)(OCC)SCCCCSP(=O)(OCC)OCC	107 µM	8.07 µM	82%	89.4%
CCOP(=O)(OCC)SCCCCCCCCCN1C(=O)c2ccccc2C1=O	267 µM	37.5 µM	77.6%	88.3%
CCOP(=O)(OCC)SCCCCCCCSP(=O)(OCC)OCC	2100 µM	10.2 µM	83.3%	97.3%
CCOP(O)(=S)OCC [O,O-DIETHYL S-HYDROGEN PHOSPHOROTHIOATE]	> 25000 µM	> 40000 µM		
CCOP(=O)(OCC)SCCCCCCCCN1C(=O)c2ccccc2C1=O	13.8 µM	4.5 µM	85%	62.5%
CCOP(=O)(OCC)SCCCCN1C(=O)c2ccccc2C1=O	25.8 µM	9.92 µM	88.9%	97.7%
CCOP(=O)(OCC)SCCCCCCN1C(=O)c2ccccc2C1=O	9.42 µM	3.81 µM	87.3%	100%
CCOP(=O)(OCC)SCCCN1C(=O)c2ccccc2C1=O	155 µM	8.29 µM	92.9%	97.8%
CCOP(=O)(OCC)SCCCCCCCCCCSP(=O)(OCC)OCC	224 µM	1.76 µM	93.3%	96.6%
CCOP(=O)(OCC)SCCCCCCCN1C(=O)c2ccccc2C1=O	2.08 µM	1.84 µM	89.3%	88%
CCOP(=O)(OCC)SCCCCCSP(=O)(OCC)OCC	4600 µM	12.3 µM	85.7%	42.6%
CCOP(=O)(OCC)SCCCCCCCCSP(=O)(OCC)OCC	331 µM	4.84 µM	87.7%	97.5%
CCOP(=O)(OCC)SCCCCCCSP(=O)(OCC)OCC	8.9 µM	0.87 µM	92.4%	95.4%
CCOP(=O)(OCC)SCCCCCCCCCCN1C(=O)c2ccccc2C1=O	80.9 µM	113 µM	92.2%	92.8%
CCOP(=O)(OCC)SCCCCCN1C(=O)c2ccccc2C1=O	114 µM	12.3 µM	81.2%	96.5%
CCOP(=O)(OCC)SCCCCCCCCCSP(=O)(OCC)OCC	197 µM	1.43 µM	78.6%	100%
CCOP(=O)(OCC)SCCCSP(=O)(OCC)OCC	32.4 µM	1.64 µM	98.4%	90.8%
